In brackets after ≈: the same amount, converted by molar mass.
Experiments:
[1] = system: carrageenan rat paw edema; assay: Rat Paw Edema Assay, Oral Dosing; format: in vivo; conditions: 4 h, four hours after drug, read-out: % Difference from Control; for change in vivo at 100 mg/kg: 100 mg/kg oral; for change in vivo at 400 mg/kg: 400 mg/kg oral
Experimental: The anti-inflammatory activity of representative compounds of this invention was determined by the rat paw edema assay both by local administration (Table XI below) and by oral dosing (Table XII below). For the oral dosing, the procedure of C. A. Winter, E. A. Risley and G. W. Nuss, Proc. Soc. Exp. Biol. Med. III, 544 (1962) was employed with measurement taken four hours after the drug was administered. The local administration tests were carried out similarly except the irritant (carrageenan) and the test compound were injected simultaneously at time zero.
Tables XI and XII report the anti-inflammatory activity of the compounds tested as % difference in the edema or swelling as compared with the control. These Tables also give the response in many instances of more than one dose level of the same drug.

[2] = system: humeral or antibody response; assay: hemolysin test in mice; format: in vivo; conditions: Mus musculus, sc, dose reducing antibody activity by 50% vs control, read-out: HL(ED50)
[3] = system: cell-mediated immune response to the antigen, Mycobacterium tuberculosis H37Ra; assay: delayed hypersensitivity test; format: in vivo, mouse; conditions: mice, dose reducing edema of cell-mediated immune response by 60% vs control; for ED60: Mus musculus, sc, read-out: D.H.S. (ED60)
Experimental: The immunosuppressant activities of the compounds of this invention were determined via the hemolysin test in mice and by the delayed hypersensitivity test. The hemolysin test used is that described in Methods in Immunology, edited by D. H. Campbell et al, W. A. Benjamin, New York 1963 pages 172-175, and measures humeral or antibody response. The delayed hypersensitivity test measures the effect of a test compound on the ability of a subject mouse to mount a cell-mediated immune response to the antigen, Mycobacterium tuberculosis H37Ra. The mouse is sensitized to the antigen by subcutaneous administration in the base of the tail. The development of the delayed hypersensitivity response may be measured at any time beginning six days after sensitization but is usually done on the ninth day as follows: The right hind paw is injected with purified protein derivative (tuberculin) while the left hind paw (control) receives physiological saline. Both paw volumes are measured after twenty-four hours and significant increase in the volume of the right hand paw is taken as a measure of an effective delayed hypersensitivity response. All compounds were administered by the subcutaneous route.
The D.H.S. (ED60) mg./kg. s.c. value appearing in column 3 is an expression of the effectiveness of the drug in reducing the edema that accompanies the cell-mediated immune response. It is a measure of the number of milligrams per kilogram of body weight of the drug administered subcutaneously which is required to reduce the edema of the cell-mediated immune response by 60% when compared to the control.

[4] = system: Trichophyton mentagrophytes; assay: Antifungal activity, agar dilution method; format: cell-based, Trichophyton mentagrophytes (ATCC No. 8757 and 9129); conditions: T. mentagrophytes, read-out: Parts Per Million Inhibitions of T. mentagrophytes
Experimental: various compounds of this invention display antifungal and anti-yeast activity.
In Table IX below are listed the antifungal activity of a number of compounds encompassed in the present invention. These were determined by the agar dilution method as described in Chapters 2 and 3 of Methods in Microbiology, Vol. 7B, edited by J. R. Norris and D. W. Ribbons, Academic Press, New York, 1972.

Compound | change in vivo at 100 mg/kg [1] | ED50 [2] | ED60 [3] | further results
CCc1nc2ccccc2n2ccnc12 [Compound 111] | -43% | – | – | –
CCC(=O)Nc1ccccc1-n1ccnc1 [Compound 3] | – | 50 mg/kg | 50 mg/kg | D.H.S. (ED60) ([3]; s.c.): 50.0 mg/kg
Fc1cccc(-c2nc3ccccc3n3ccnc23)c1 [Compound 158] | – | 1 mg/kg | 7.6 mg/kg | –
COc1cc(OC)cc(C(=O)Nc2ccccc2-n2ccnc2)c1 [Compound 57] | -35% | – | – | –
O=[N+]([O-])c1cccc(-c2nc3ccccc3n3ccnc23)c1 [Compound 150] | -30% | 22 mg/kg | > 50 mg/kg | –
Ic1ccc(-c2nc3ccccc3n3ccnc23)cc1 [Compound 196] | – | 0.42 mg/kg | 45 mg/kg | –
O=C(Nc1ccccc1-n1ccnc1)c1cccc(C(F)(F)F)c1 [Compound 38] | -41% | – | – | –
O=C(Nc1cccc(F)c1)Nc1ccccc1-n1ccnc1 [Compound 73] | -22% | – | – | –
O=C(Nc1ccccc1-n1ccnc1)C1CCC1 [Compound 24] | -17% | – | – | change in vivo at 400 mg/kg [1]: -25%
O=C(Nc1ccccc1-n1ccnc1)c1cccc([N+](=O)[O-])c1 [Compound 42] | -9% | – | – | change in vivo at 400 mg/kg [1]: -25%
CC(=O)Nc1ccccc1-n1ccnc1 [Compound 2] | -26% | – | – | change in vivo at 400 mg/kg [1]: 43%
CC(=O)Oc1ccccc1C(=O)O [Aspirin, reference compound] | -57% | – | – | –
Cc1ccccc1Nc1nc2ccccc2n2ccnc12 [Compound 197] | – | 1.6 mg/kg | 37 mg/kg | –
CCCCC1C(=O)N(c2ccccc2)N(c2ccccc2)C1=O [phenylbutazone, reference compound] | -76% | – | – | –
Clc1ccc(-c2nc3ccccc3n3ccnc23)c(Cl)c1 [Compound 144] | -26% | – | – | –
c1ccc(Oc2ccc(-c3nc4ccccc4n4ccnc34)cc2)cc1 [Compound 219] | – | 2.5 mg/kg | > 32 mg/kg | –
Brc1ccc(Nc2nc3ccccc3n3ccnc23)cc1 [Compound 183] | – | 0.39 mg/kg | 15 mg/kg | –
Cc1ccc(Nc2nc3ccccc3n3ccnc23)cc1 [Compound 171] | – | 0.96 mg/kg | 59 mg/kg | –
CCCCCCCCc1nc2ccccc2n2ccnc12 [Compound 117] | -7% | > 50 mg/kg | 46 mg/kg | change in vivo at 400 mg/kg [1]: -18%
COc1ccc2c(c1)c(CC(=O)O)c(C)n2C(=O)c1ccc(Cl)cc1 [Indomethacin, reference compound] | -65% | – | – | –

Compound | change in vivo at 100 mg/kg [1] | ED50 [2] | ED60 [3] | further results
O=C(Nc1ccc(Cl)cc1)Nc1ccccc1-n1ccnc1 [Compound 75] | -30% | – | – | –
O=C(Nc1ccccc1-n1ccnc1)c1ccc(F)cc1 [Compound 45] | -33% | – | – | –
O=C(Nc1ccccc1-n1ccnc1)C(F)(F)F [Compound 30] | 9% | – | – | change in vivo at 400 mg/kg [1]: -33%
Cc1ccc(C(=O)Nc2ccccc2-n2ccnc2)cc1 [Compound 37] | -35% | – | – | –
Brc1ccccc1Nc1nc2ccccc2n2ccnc12 [Compound 177] | – | 13 mg/kg | > 50 mg/kg | –
CCCNC(=O)Nc1ccccc1-n1ccnc1 [Compound 66] | – | 46 mg/kg | > 50 mg/kg | –
CCCCC(CC)C(=O)Nc1ccccc1-n1ccnc1 (stereo not drawn) [Compound 15] | -24% | – | – | change in vivo at 400 mg/kg [1]: -5%
COc1cc(OC)cc(-c2nc3ccccc3n3ccnc23)c1 [Compound 139] | -22% | 3 mg/kg | > 50 mg/kg | MIC [4]: 100 µg/mL (≈ 328 µM); change in vivo at 400 mg/kg [1]: -25%
CC(C)c1ccc(Nc2nc3ccccc3n3ccnc23)cc1 [Compound 218] | – | 1.5 mg/kg | 25 mg/kg | –
Fc1ccccc1Nc1nc2ccccc2n2ccnc12 [Compound 180] | – | 5.6 mg/kg | – | –
Cc1ccc(NC(=O)Nc2ccccc2-n2ccnc2)cc1 [Compound 71] | -22% | – | – | –
Oc1ccc(-c2nc3ccccc3n3ccnc23)cc1 [Compound 162] | – | 13 mg/kg | – | –
O=C(Cc1ccccc1)Nc1ccccc1-n1ccnc1 [Compound 18] | -28% | – | – | –
O=C(Nc1ccccc1-n1ccnc1)c1ccc(Cl)cc1Cl [Compound 52] | -26% | – | – | –
COc1ccc(C(=O)Nc2ccccc2-n2ccnc2)cc1 [Compound 55] | -26% | – | – | –
O=C(Nc1ccccc1-n1ccnc1)c1cccc(Cl)c1 [Compound 50] | -20% | – | – | change in vivo at 400 mg/kg [1]: -33%
Brc1cccc(Nc2nc3ccccc3n3ccnc23)c1 [Compound 178] | – | 11 mg/kg | 46 mg/kg | –
c1ccc(Nc2nc3ccccc3n3ccnc23)cc1 [Compound 170] | – | 6.6 mg/kg | > 50 mg/kg | –
O=C(Nc1ccccc1-n1ccnc1)C1CCCCC1 [Compound 25] | -30% | – | – | –
CCCCSc1ccc(-c2nc3ccccc3n3ccnc23)cc1 [Compound 222] | – | 1 mg/kg | > 32 mg/kg | –

Compound | change in vivo at 100 mg/kg [1] | ED50 [2] | ED60 [3] | further results
Clc1ccc(Nc2nc3ccccc3n3ccnc23)cc1 [Compound 174] | – | 0.61 mg/kg | 8 mg/kg | –
N#Cc1ccc(-c2nc3ccccc3n3ccnc23)cc1 [Compound 149] | – | 0.16 mg/kg | 8.8 mg/kg | –
Cc1cccc(C(=O)Nc2ccccc2-n2ccnc2)c1 [Compound 36] | -7% | – | – | change in vivo at 400 mg/kg [1]: -68%
COc1ccc(Oc2ccc(-c3nc4ccccc4n4ccnc34)cc2)cc1 [Compound 220] | – | 2.3 mg/kg | 11 mg/kg | –
O=C(Nc1ccccc1-n1ccnc1)C(Cl)Cl [Compound 29] | -24% | – | – | change in vivo at 400 mg/kg [1]: -25%
Brc1ccc(-c2nc3ccccc3n3ccnc23)cc1 [Compound 146] | – | 0.11 mg/kg | 3.1 mg/kg | –
CC(C)Cc1nc2ccccc2n2ccnc12 [Compound 121] | -61% | – | – | –
Fc1ccc(-c2nc3ccccc3n3ccnc23)cc1 [Compound 147] | -39% | 0.027 mg/kg | 1.7 mg/kg | –
Brc1cccc(-c2nc3ccccc3n3ccnc23)c1 [Compound 157] | – | 0.39 mg/kg | 12 mg/kg | –
CCCCCCc1nc2ccccc2n2ccnc12 [Compound 115] | 70% | – | – | change in vivo at 400 mg/kg [1]: -25%
Clc1ccc(-c2nc3ccccc3n3ccnc23)cc1Cl [Compound 143] | – | 0.36 mg/kg | 1.3 mg/kg | –
Clc1ccc(Nc2nc3ccccc3n3ccnc23)cc1Cl [Compound 175] | – | 0.09 mg/kg | 5.9 mg/kg | –
O=C(Nc1ccccc1-n1ccnc1)C1CC1 [Compound 23] | -46% | – | – | –
O=C(Nc1ccccc1-n1ccnc1)NC1CCCCC1 [Compound 68] | -26% | – | – | –
Clc1cccc(-c2nc3ccccc3n3ccnc23)c1 [Compound 142] | – | 0.2 mg/kg | 4.2 mg/kg | MIC [4]: 100 µg/mL (≈ 357 µM)
Fc1cccc(Nc2nc3ccccc3n3ccnc23)c1 [Compound 181] | – | 16 mg/kg | – | –
FC(F)(F)c1cccc(-c2nc3ccccc3n3ccnc23)c1 [Compound 136] | -9% | 2.7 mg/kg | > 50 mg/kg | MIC [4]: 100 µg/mL (≈ 319 µM); change in vivo at 400 mg/kg [1]: -25%
CC(C)CC(=O)Nc1ccccc1-n1ccnc1 [Compound 14] | -52% | – | – | –

Reference: patent US4160097A, “1-(2-Phenylureylene)imidazoles” (Westwind Pharmaceuticals, Inc., priority 1977, dated 1979)
